Experimental data as given in patent publication US20250049777A1, “PHARMACEUTICALLY ACCEPTABLE SALT AND CRYSTALLINE FORM OF GLP-1 RECEPTOR AGONIST AND PREPARATION METHOD THEREFOR” (JIANGSU HENGRUI PHARMACEUTICALS CO., LTD., priority 2021, published 2025).
Structures can show the parent of a compound that is named as a salt. Where two headings read alike, the source gives them in different places.

Columns and labels:
[1] = format: physicochemical
Protocol: A salt-type sample was sealed with an aluminum foil bag and placed under the conditions of 25° C./60% RH and 40° C./75% RH, respectively, to investigate the stability.

[2] = Hygroscopicity of crystal forms of salts (DVS, 25° C.); format: physicochemical; settings: for Crystal form after DVS: 0% to 95% RH
Text: According to the description of hygroscopic characteristics and the definition of hygroscopic weight gain in “9103 Guidelines for Hygroscopicity of Pharmaceuticals”, Chinese Pharmacopoeia, Volume IV, 2015 edition, the following are defined: • deliquescent: absorbing enough water to form a liquid; • extremely hygroscopic: having a hygroscopic weight gain of not less than 15%; • hygroscopic: having a hygroscopic weight gain of less than 15% and not less than 2%; • slightly hygroscopic: having a hygroscopic weight gain of less than 2% and not less than 0.2%; and • no or almost no hygroscopicity: having a hygroscopic weight gain of less than 0.2%.
Surface Measurement Systems intrinsic DVS was used at 25° C. The observed humidity ranged from 0% to 95%. The step was 10%. The criterion was that the mass change dM/dT for each step was less than 0.002%. TMAX was 360 min. Two cycles were carried out.

[3] = Stability of crystal forms of salts under influencing factors (illumination, high temperature, high humidity); format: physicochemical
Text: The sampling and investigation period was 30 days.

[4] = 25° C./60% RH, sealed aluminum foil bag
[5] = 40° C./75% RH, sealed aluminum foil bag
[6] = Illumination (4500 Lux), 7 days, open
[7] = Illumination (4500 Lux), 14 days, open
[8] = Illumination (4500 Lux), 30 days, open
[9] = 25° C./60% RH, 1 month, sealed aluminum foil bag
[10] = 40° C./75% RH, 1 month, sealed aluminum foil bag
[11] = 40° C./75% RH, 3 months, sealed aluminum foil bag
[12] = Illumination (4500 Lux), 5 days, open
[13] = Illumination (4500 Lux), 10 days, open

What does the source list for `O=C(O)c1ccc2nc(CN3CCC(c4cccc5c4O[C@@H](c4ccc(Cl)cc4F)CO5)CC3)n(C[C@@H]3CCO3)c2c1` [Crystal form A of tromethamine salt, 2-((4-((S)-3-(4-chloro-2-fluorophenyl)-2,3-dihydrobenzo[b][1,4]dioxan-5-yl)piperidin-1-yl)methyl)-1-(((S)-oxetan-2-yl)methyl)-1H-benzo[d]imidazole-6-carboxylic acid]?
physical and chemical stability [1]: good physical and chemical stability; Crystal form [1, 4]: Unchanged; Crystal form [1, 5]: Unchanged; hygroscopic weight gain 0.0% RH to 80.0% RH [2]: 5.02%; Crystal form after DVS [2]: Unchanged; chemical stability [3]: slightly poor chemical stability; % Purity ([3]; 40° C., 7 days, open): 96.1%; Crystal form ([3]; 40° C., 7 days, open): Unchanged; % Purity ([3]; 40° C., 14 days, open): 91.7%; Crystal form ([3]; 40° C., 14 days, open): Unchanged; % Purity ([3]; 40° C., 30 days, open): 87.4%; Crystal form ([3]; 40° C., 30 days, open): Unchanged; % Purity ([3]; 60° C., 7 days, open): 93.5%; Crystal form ([3]; 60° C., 7 days, open): Unchanged; % Purity ([3]; 60° C., 14 days, open): 88.6%; Crystal form ([3]; 60° C., 14 days, open): Unchanged; % Purity ([3]; 75% RH, 7 days, open): 99.4%; Crystal form ([3]; 75% RH, 7 days, open): Unchanged; % Purity ([3]; 75% RH, 14 days, open): 99.4%; Crystal form ([3]; 75% RH, 14 days, open): Unchanged; % Purity ([3]; 75% RH, 30 days, open): 99.3%; Crystal form ([3]; 75% RH, 30 days, open): Unchanged; % Purity ([3]; 92.5% RH, 7 days, open): 99.3%; Crystal form ([3]; 92.5% RH, 7 days, open): Unchanged; % Purity ([3]; 92.5% RH, 14 days, open): 99.0%; Crystal form ([3]; 92.5% RH, 14 days, open): Unchanged; % Purity ([3]; 92.5% RH, 30 days, open): 98.6%; Crystal form ([3]; 92.5% RH, 30 days, open): Unchanged; % Purity [3, 6]: 98.9%; Crystal form [3, 6]: Unchanged; % Purity [3, 7]: 97.6%; Crystal form [3, 7]: Unchanged; % Purity [3, 8]: 90.8%; Crystal form [3, 8]: Unchanged; % Purity ([3]; Initial condition, 0 days): 99.5%

With `O=C(O)c1ccc2nc(CN3CCC(c4cccc5c4O[C@@H](c4ccc(Cl)cc4F)CO5)CC3)n(C[C@@H]3CCO3)c2c1` [Crystal form D of tromethamine salt, 2-((4-((S)-3-(4-chloro-2-fluorophenyl)-2,3-dihydrobenzo[b][1,4]dioxan-5-yl)piperidin-1-yl)methyl)-1-(((S)-oxetan-2-yl)methyl)-1H-benzo[d]imidazole-6-carboxylic acid] as the molecule, how does the “physical and chemical stability” value [1] read?
The value was “good physical and chemical stability”.

And the “% Purity” value [1, 9]?
The value was 99.7%.

What about the “% Purity” value ([1]; 25° C./60% RH, 3 months, sealed aluminum foil bag) of the same molecule?
The value was 99.7%.

And the Crystal form [1, 4]?
Its Crystal form is “Unchanged”.

And the “% Purity” value [1, 10]?
The value was 99.5%.

And the “% Purity” value [1, 11]?
The value was 99.1%.

What about the Crystal form [1, 5] of the same molecule?
Its Crystal form is “Unchanged”.

What about the “% Purity” value ([1]; Initial condition) of the same molecule?
Its value is 99.7%.

What about the “hygroscopic weight gain 0.0% RH to 80.0% RH” value [2] of the same molecule?
The value was 2.45%.

And the “Crystal form after DVS” value [2]?
The value was “Unchanged”.

And the “% Purity” value ([3]; 40° C., 7 days, open)?
The value was 99.5%.

And the Crystal form ([3]; 40° C., 7 days, open)?
The Crystal form was “Unchanged”.

And the “% Purity” value ([3]; 40° C., 14 days, open)?
The value was 99.3%.

And the Crystal form ([3]; 40° C., 14 days, open)?
Its Crystal form is “Unchanged”.

What about the “% Purity” value ([3]; 40° C., 30 days, open) of the same molecule?
The value was 99.3%.

What about the Crystal form ([3]; 40° C., 30 days, open) of the same molecule?
The Crystal form was “Unchanged”.

What about the “% Purity” value ([3]; 60° C., 7 days, open) of the same molecule?
Its value is 99.4%.

And the Crystal form ([3]; 60° C., 7 days, open)?
The Crystal form was “Unchanged”.

And the “% Purity” value ([3]; 60° C., 14 days, open)?
The value was 99.1%.

What about the Crystal form ([3]; 60° C., 14 days, open) of the same molecule?
Its Crystal form is “Unchanged”.

And the “% Purity” value ([3]; 60° C., 30 days, open)?
The value was 99.0%.

And the Crystal form ([3]; 60° C., 30 days, open)?
The Crystal form was “Unchanged”.

What about the “% Purity” value ([3]; 75% RH, 7 days, open) of the same molecule?
Its value is 99.7%.

And the Crystal form ([3]; 75% RH, 7 days, open)?
Its Crystal form is “Unchanged”.

What about the “% Purity” value ([3]; 75% RH, 14 days, open) of the same molecule?
Its value is 99.6%.

What about the Crystal form ([3]; 75% RH, 14 days, open) of the same molecule?
The Crystal form was “Unchanged”.

And the “% Purity” value ([3]; 75% RH, 30 days, open)?
Its value is 99.6%.

What about the Crystal form ([3]; 75% RH, 30 days, open) of the same molecule?
The Crystal form was “Unchanged”.

What about the “% Purity” value ([3]; 92.5% RH, 7 days, open) of the same molecule?
Its value is 99.5%.

And the Crystal form ([3]; 92.5% RH, 7 days, open)?
Its Crystal form is “Unchanged”.

What about the “% Purity” value ([3]; 92.5% RH, 14 days, open) of the same molecule?
The value was 99.4%.

What about the Crystal form ([3]; 92.5% RH, 14 days, open) of the same molecule?
Its Crystal form is “Unchanged”.

What about the “% Purity” value ([3]; 92.5% RH, 30 days, open) of the same molecule?
Its value is 99.0%.

What about the Crystal form ([3]; 92.5% RH, 30 days, open) of the same molecule?
Its Crystal form is “Unchanged”.

What about the “% Purity” value [3, 6] of the same molecule?
Its value is 99.6%.

What about the Crystal form [3, 6] of the same molecule?
Its Crystal form is “Unchanged”.

And the “% Purity” value [3, 7]?
Its value is 99.6%.

What about the Crystal form [3, 7] of the same molecule?
Its Crystal form is “Unchanged”.

What about the “% Purity” value [3, 8] of the same molecule?
The value was 99.6%.

And the Crystal form [3, 8]?
The Crystal form was “Unchanged”.

And the “% Purity” value ([3]; Initial condition, 0 days)?
Its value is 99.7%.

For `O=C(O)c1ccc2nc(CN3CCC(c4cccc5c4O[C@@H](c4ccc(Cl)cc4F)CO5)CC3)n(C[C@@H]3CCO3)c2c1` [Crystal form I of hydrochloride salt, 2-((4-((S)-3-(4-chloro-2-fluorophenyl)-2,3-dihydrobenzo[b][1,4]dioxan-5-yl)piperidin-1-yl)methyl)-1-(((S)-oxetan-2-yl)methyl)-1H-benzo[d]imidazole-6-carboxylic acid], which “physical and chemical stability” value [1] is on record?
The value was “good physical and chemical stability”.

And the “% Purity” value [1, 9]?
Its value is 98.1%.

What about the “% Purity” value ([1]; 25° C./60% RH, 2 months, sealed aluminum foil bag) of the same molecule?
The value was 97.9%.

What about the Crystal form [1, 4] of the same molecule?
The Crystal form was “Unchanged”.

And the “% Purity” value [1, 10]?
Its value is 97.8%.

And the “% Purity” value ([1]; 40° C./75% RH, 2 months, sealed aluminum foil bag)?
The value was 97.8%.

What about the Crystal form [1, 5] of the same molecule?
Its Crystal form is “Unchanged”.

And the “% Purity” value ([1]; Initial condition)?
The value was 98.0%.

What about the “% Purity” value ([3]; 40° C., 5 days, open) of the same molecule?
Its value is 98.0%.

And the Crystal form ([3]; 40° C., 5 days, open)?
The Crystal form was “Unchanged”.

What about the “% Purity” value ([3]; 40° C., 10 days, open) of the same molecule?
Its value is 98.1%.

And the Crystal form ([3]; 40° C., 10 days, open)?
Its Crystal form is “Unchanged”.

And the “% Purity” value ([3]; 40° C., 30 days, open)?
The value was 97.8%.

What about the Crystal form ([3]; 40° C., 30 days, open) of the same molecule?
Its Crystal form is “Unchanged”.

What about the “% Purity” value ([3]; 60° C., 5 days, open) of the same molecule?
Its value is 97.6%.

And the Crystal form ([3]; 60° C., 5 days, open)?
The Crystal form was “Unchanged”.

And the “% Purity” value ([3]; 60° C., 10 days, open)?
Its value is 97.7%.

What about the Crystal form ([3]; 60° C., 10 days, open) of the same molecule?
The Crystal form was “Unchanged”.

And the “% Purity” value ([3]; 60° C., 30 days, open)?
Its value is 97.7%.

What about the Crystal form ([3]; 60° C., 30 days, open) of the same molecule?
Its Crystal form is “Unchanged”.

And the “% Purity” value ([3]; 75% RH, 5 days, open)?
Its value is 98.1%.

And the Crystal form ([3]; 75% RH, 5 days, open)?
The Crystal form was “Unchanged”.

What about the “% Purity” value ([3]; 75% RH, 10 days, open) of the same molecule?
The value was 98.0%.

And the Crystal form ([3]; 75% RH, 10 days, open)?
Its Crystal form is “Unchanged”.

And the “% Purity” value ([3]; 75% RH, 30 days, open)?
The value was 98.1%.

And the Crystal form ([3]; 75% RH, 30 days, open)?
The Crystal form was “Unchanged”.

What about the “% Purity” value ([3]; 92.5% RH, 5 days, open) of the same molecule?
Its value is 98.1%.

What about the Crystal form ([3]; 92.5% RH, 5 days, open) of the same molecule?
The Crystal form was “Unchanged”.

And the “% Purity” value ([3]; 92.5% RH, 10 days, open)?
Its value is 97.4%.

What about the Crystal form ([3]; 92.5% RH, 10 days, open) of the same molecule?
The Crystal form was “Unchanged”.

And the “% Purity” value ([3]; 92.5% RH, 30 days, open)?
The value was 96.9%.

What about the Crystal form ([3]; 92.5% RH, 30 days, open) of the same molecule?
Its Crystal form is “Unchanged”.

And the “% Purity” value [3, 12]?
Its value is 97.9%.

And the Crystal form [3, 12]?
Its Crystal form is “Unchanged”.

What about the “% Purity” value [3, 13] of the same molecule?
Its value is 98.1%.

What about the Crystal form [3, 13] of the same molecule?
The Crystal form was “Unchanged”.

And the “% Purity” value [3, 8]?
The value was 98.0%.

What about the Crystal form [3, 8] of the same molecule?
Its Crystal form is “Unchanged”.

And the “% Purity” value ([3]; Initial condition, 0 days)?
Its value is 98.0%.

With `O=C(O)c1ccc2nc(CN3CCC(c4cccc5c4O[C@@H](c4ccc(Cl)cc4F)CO5)CC3)n(C[C@@H]3CCO3)c2c1` [Crystal form α of malate salt, 2-((4-((S)-3-(4-chloro-2-fluorophenyl)-2,3-dihydrobenzo[b][1,4]dioxan-5-yl)piperidin-1-yl)methyl)-1-(((S)-oxetan-2-yl)methyl)-1H-benzo[d]imidazole-6-carboxylic acid] as the molecule, how does the “% Purity” value [1, 11] read?
Its value is 97.1%.

What about the “% Purity” value ([1]; Initial condition) of the same molecule?
Its value is 99.0%.

And the “% Purity” value ([3]; 92.5% RH, 5 days, open, listed as crystal form a of malate salt)?
Its value is 99.0%.

What about the “% Purity” value ([3]; Initial condition, 0 days, listed as crystal form a of malate salt) of the same molecule?
The value was 99.0%.
